Measurements published in ChEMBL document CHEMBL5678809, “Preclinical characterization of GLPG0634, a selective inhibitor of JAK1, for the treatment of inflammatory diseases” (J Immunol, 2013).
Active and inactive are the calls of the source. The calls are words filed in the database; no cut-off is given here.

Tests used:
[1] = molecular target: Activated CDC42 kinase 1 (Homo sapiens) (UniProt Q07912); assay: Inhibition of ACK1 (unknown origin) at 1 uM relative to control
Aurora kinase B = Aurora kinase B (Homo sapiens, UniProt Q96GD4); assay: Inhibition of AURORA-B (unknown origin)
[2] = molecular target: Protein-tyrosine kinase 6 (Homo sapiens) (UniProt Q13882); assay: Inhibition of BRK (unknown origin) at 1 uM relative to control
[3] = molecular target: Cyclin-dependent kinase 1/cyclin B1 (Homo sapiens) (UniProt P06493+P14635); assay: Inhibition of CDK1/cyclinB (unknown origin) at 1 uM relative to control; assay type: protein-complex assay
[4] = molecular target: Dual specificity protein kinase CLK2 (Homo sapiens) (UniProt P49760); assay: Inhibition of CLK2 (unknown origin) at 1 uM relative to control
[5] = molecular target: Casein kinase I isoform gamma-2 (Homo sapiens, UniProt P78368); assay: Inhibition of CSNK1G2 (unknown origin)
[6] = molecular target: Myotonin-protein kinase (Homo sapiens) (UniProt Q09013); assay: Inhibition of DMPK (unknown origin) at 1 uM relative to control
[7] = molecular target: Epidermal growth factor receptor (Homo sapiens) (UniProt P00533); assay: Inhibition of EGFR (unknown origin) at 1 uM relative to control
[8] = molecular target: Ephrin type-A receptor 8 (Homo sapiens) (UniProt P29322); assay: Inhibition of EphA8 (unknown origin) at 1 uM relative to control
[9] = molecular target: Focal adhesion kinase 1 (Homo sapiens) (UniProt Q05397); assay: Inhibition of FAK (unknown origin) at 1 uM relative to control
[10] = molecular target: Macrophage colony-stimulating factor 1 receptor (Homo sapiens, UniProt P07333); assay: Inhibition of FMS (unknown origin)
[11] = molecular target: Insulin receptor (Homo sapiens) (UniProt P06213); assay: Inhibition of IR (unknown origin) at 1 uM relative to control
[12] = molecular target: Mitogen-activated protein kinase 14 (Homo sapiens, UniProt Q16539); assay: Inhibition of MAPK14 (unknown origin)
Homo sapiens [13] = organism: Homo sapiens; assay: Inhibition of MRCK (unknown origin) at 1 uM relative to control
[14] = molecular target: Muscle, skeletal receptor tyrosine-protein kinase (Homo sapiens) (UniProt O15146); assay: Inhibition of MuSK (unknown origin) at 1 uM relative to control
[15] = molecular target: PAS domain-containing serine/threonine-protein kinase (Homo sapiens) (UniProt Q96RG2); assay: Inhibition of PASK (unknown origin) at 1 uM relative to control
[16] = molecular target: Serine/threonine-protein kinase pim-2 (Homo sapiens) (UniProt Q9P1W9); assay: Inhibition of Pim-2 (unknown origin) at 1 uM relative to control
Homo sapiens [17] = organism: Homo sapiens; assay: Inhibition of PKB3 (unknown origin) at 1 uM relative to control
[18] = molecular target: Serine/threonine-protein kinase D1 (Homo sapiens) (UniProt Q15139); assay: Inhibition of PKC-mu (unknown origin) at 1 uM relative to control
[19] = molecular target: Protein kinase C delta type (Homo sapiens) (UniProt Q05655); assay: Inhibition of PKCd (unknown origin) at 1 uM relative to control
[20] = molecular target: Rho-associated protein kinase 1 (Homo sapiens, UniProt Q13464); assay: Inhibition of ROCK1 (unknown origin)
[21] = molecular target: Ribosomal protein S6 kinase alpha-3 (Homo sapiens) (UniProt P51812); assay: Inhibition of Rsk2 (unknown origin) at 1 uM relative to control
[22] = molecular target: Serine/threonine-protein kinase SIK1 (Homo sapiens) (UniProt P57059); assay: Inhibition of SIK (unknown origin) at 1 uM relative to control
[23] = molecular target: SRSF protein kinase 1 (Homo sapiens) (UniProt Q96SB4); assay: Inhibition of SRPK1 (unknown origin) at 1 uM relative to control
[24] = molecular target: Tyrosine-protein kinase SYK (Homo sapiens, UniProt P43405); assay: Inhibition of SYK (unknown origin)
[25] = molecular target: Serine/threonine-protein kinase ULK2 (Homo sapiens) (UniProt Q8IYT8); assay: Inhibition of ULK2 (unknown origin) at 1 uM relative to control
[26] = molecular target: Serine/threonine-protein kinase ULK3 (Homo sapiens) (UniProt Q6PHR2); assay: Inhibition of ULK3 (unknown origin) at 1 uM relative to control
[27] = molecular target: Vascular endothelial growth factor receptor 1 (Homo sapiens, UniProt P17948); assay: Inhibition of Flt1 (unknown origin) at 1 uM relative to control
RPMI-8226 = assay: Inhibition of human […] cell differentiation assessed as effect on IL-4 mRNA expression by RT-PCR analysis; assay type: functional, cell-based; conditions: dose 0.1-10 µM
[28] = Half life in CD-1 mouse at 1 mg/kg, iv measured upto 8 hrs by LC-MS analysis; assay type: ADME, organism-based; conditions: in vivo
[29] = Oral bioavailability in CD-1 mouse at 5 mg/kg measured upto 24 hrs by LC-MS analysis; assay type: ADME, organism-based; conditions: in vivo
[30] = Cmax in Sprague-Dawley rat at 1 mg/kg, iv measured upto 8 hrs by LC-MS analysis; assay type: ADME, organism-based; conditions: in vivo
[31] = AUC (0 to 24 hrs) in Sprague-Dawley rat at 5 mg/kg, po measured upto 24 hrs by LC-MS analysis; assay type: ADME, organism-based; conditions: in vivo
Mus musculus [32] = assay: Antiarthritic activity against collagen-induced arthritis DBA/1J mouse model assessed as reduction in clinical score at 50 mg/kg, po administered twice daily for 14 days; assay type: functional, organism-based; conditions: time 14.0 day
Mus musculus [33] = assay: Antiarthritic activity against collagen-induced arthritis DBA/1J mouse model assessed as reduction in IL-1beta expression at 50 mg/kg, po measured for 4 hrs; assay type: functional, organism-based
Mus musculus [34] = assay: Antiarthritic activity against collagen-induced arthritis DBA/1J mouse model assessed as reduction in MMP3 expression at 50 mg/kg, po measured for 4 hrs; assay type: functional, organism-based
Mus musculus [35] = assay: Antiarthritic activity against collagen-induced arthritis DBA/1J mouse model assessed as reduction in MMP13 expression at 50 mg/kg, po measured for 4 hrs; assay type: functional, organism-based
Mus musculus [36] = assay: Antiarthritic activity against collagen-induced arthritis DBA/1J mouse model assessed as reduction in Mx1 expression in paw at 50 mg/kg, po measured for 2 weeks by RT-PCR analysis; assay type: functional, organism-based
Mus musculus [37] = assay: Antiarthritic activity against collagen-induced arthritis DBA/1J mouse model assessed as M-CSF1 level in serum at 50 mg/kg, po measured for 4 hrs by luminex analysis (reference value: 11.1 +/- 1.3 ng/ml); assay type: functional
Mus musculus [38] = assay: Antiarthritic activity against collagen-induced arthritis DBA/1J mouse model assessed as SCF level in serum at 50 mg/kg, po measured for 4 hrs by luminex analysis (reference value: 672.4 +/- 242.2 ng/ml); assay type: functional
Mus musculus [39] = assay: Antiarthritic activity against collagen-induced arthritis DBA/1J mouse model assessed as reduction in IP-10 level in serum at 50 mg/kg, po measured for 4 hrs by luminex analysis; assay type: functional, organism-based
Mus musculus [40] = assay: Antiarthritic activity against collagen-induced arthritis DBA/1J mouse model assessed as reduction in MX1 level in whole blood at 50 mg/kg, po measured for 2 weeks by luminex analysis; assay type: functional, organism-based

Sequence of Macrophage colony-stimulating factor 1 receptor (P07333 whole entry): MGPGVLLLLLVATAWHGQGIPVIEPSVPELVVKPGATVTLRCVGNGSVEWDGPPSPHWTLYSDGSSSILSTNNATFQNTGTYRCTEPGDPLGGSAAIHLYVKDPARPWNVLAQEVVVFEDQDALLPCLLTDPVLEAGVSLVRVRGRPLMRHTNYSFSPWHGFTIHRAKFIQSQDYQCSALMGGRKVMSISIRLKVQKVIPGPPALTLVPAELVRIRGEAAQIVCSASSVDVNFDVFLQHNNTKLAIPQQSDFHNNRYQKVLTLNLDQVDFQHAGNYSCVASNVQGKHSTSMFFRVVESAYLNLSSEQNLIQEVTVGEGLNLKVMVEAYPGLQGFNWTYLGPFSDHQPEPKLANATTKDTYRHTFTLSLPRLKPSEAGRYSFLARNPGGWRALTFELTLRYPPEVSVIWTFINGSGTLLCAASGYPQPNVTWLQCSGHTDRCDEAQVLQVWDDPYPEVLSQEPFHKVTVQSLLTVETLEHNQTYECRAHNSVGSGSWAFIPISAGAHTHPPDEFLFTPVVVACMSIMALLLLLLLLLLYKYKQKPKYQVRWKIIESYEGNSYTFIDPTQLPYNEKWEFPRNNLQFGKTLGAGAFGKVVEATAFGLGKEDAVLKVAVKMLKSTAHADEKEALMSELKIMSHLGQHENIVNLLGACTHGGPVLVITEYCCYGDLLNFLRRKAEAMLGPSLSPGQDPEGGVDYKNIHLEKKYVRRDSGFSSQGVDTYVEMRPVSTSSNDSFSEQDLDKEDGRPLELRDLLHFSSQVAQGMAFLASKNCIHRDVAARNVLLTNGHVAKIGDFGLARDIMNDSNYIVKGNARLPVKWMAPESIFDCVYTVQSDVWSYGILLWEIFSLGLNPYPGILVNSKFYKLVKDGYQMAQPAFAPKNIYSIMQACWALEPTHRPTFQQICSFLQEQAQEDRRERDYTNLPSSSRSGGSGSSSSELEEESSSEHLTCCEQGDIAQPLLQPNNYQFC
Sequence of Vascular endothelial growth factor receptor 1 (P17948 whole entry): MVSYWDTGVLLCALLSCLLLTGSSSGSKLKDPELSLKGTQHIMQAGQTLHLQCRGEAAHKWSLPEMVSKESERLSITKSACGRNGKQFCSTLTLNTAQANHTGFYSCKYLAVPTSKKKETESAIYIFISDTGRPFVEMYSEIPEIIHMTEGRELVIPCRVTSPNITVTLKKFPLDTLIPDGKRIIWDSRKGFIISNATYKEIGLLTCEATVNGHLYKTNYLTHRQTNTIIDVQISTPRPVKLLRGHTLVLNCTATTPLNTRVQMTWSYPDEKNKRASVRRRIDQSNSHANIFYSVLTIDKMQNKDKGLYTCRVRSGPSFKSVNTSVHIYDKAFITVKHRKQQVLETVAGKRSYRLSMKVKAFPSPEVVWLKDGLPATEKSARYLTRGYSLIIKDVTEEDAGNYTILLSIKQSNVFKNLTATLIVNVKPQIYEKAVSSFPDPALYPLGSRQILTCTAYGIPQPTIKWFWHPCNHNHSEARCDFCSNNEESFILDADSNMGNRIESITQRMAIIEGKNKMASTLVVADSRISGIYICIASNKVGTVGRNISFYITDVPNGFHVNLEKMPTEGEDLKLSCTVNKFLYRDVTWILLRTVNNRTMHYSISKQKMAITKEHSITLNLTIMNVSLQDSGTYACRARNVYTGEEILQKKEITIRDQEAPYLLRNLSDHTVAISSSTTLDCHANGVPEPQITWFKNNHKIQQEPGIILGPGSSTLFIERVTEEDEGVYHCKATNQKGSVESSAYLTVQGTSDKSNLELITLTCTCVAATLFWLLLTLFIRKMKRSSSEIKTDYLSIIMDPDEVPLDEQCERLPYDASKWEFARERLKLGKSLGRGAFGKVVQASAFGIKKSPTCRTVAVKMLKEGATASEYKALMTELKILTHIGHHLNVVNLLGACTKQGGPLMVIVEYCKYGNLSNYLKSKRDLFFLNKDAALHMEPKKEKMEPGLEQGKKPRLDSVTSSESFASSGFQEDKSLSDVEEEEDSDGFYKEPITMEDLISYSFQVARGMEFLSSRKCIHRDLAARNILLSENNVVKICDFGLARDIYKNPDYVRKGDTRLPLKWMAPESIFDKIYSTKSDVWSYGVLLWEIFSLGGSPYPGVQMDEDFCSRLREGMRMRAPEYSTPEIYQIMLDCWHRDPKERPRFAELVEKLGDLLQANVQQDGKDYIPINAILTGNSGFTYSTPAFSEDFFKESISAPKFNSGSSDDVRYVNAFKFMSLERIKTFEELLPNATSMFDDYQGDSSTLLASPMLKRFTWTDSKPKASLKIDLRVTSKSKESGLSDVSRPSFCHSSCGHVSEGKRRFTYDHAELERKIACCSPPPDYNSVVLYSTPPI
Sequence of Protein kinase C delta type (Homo sapiens) (Q05655 whole entry, looked up): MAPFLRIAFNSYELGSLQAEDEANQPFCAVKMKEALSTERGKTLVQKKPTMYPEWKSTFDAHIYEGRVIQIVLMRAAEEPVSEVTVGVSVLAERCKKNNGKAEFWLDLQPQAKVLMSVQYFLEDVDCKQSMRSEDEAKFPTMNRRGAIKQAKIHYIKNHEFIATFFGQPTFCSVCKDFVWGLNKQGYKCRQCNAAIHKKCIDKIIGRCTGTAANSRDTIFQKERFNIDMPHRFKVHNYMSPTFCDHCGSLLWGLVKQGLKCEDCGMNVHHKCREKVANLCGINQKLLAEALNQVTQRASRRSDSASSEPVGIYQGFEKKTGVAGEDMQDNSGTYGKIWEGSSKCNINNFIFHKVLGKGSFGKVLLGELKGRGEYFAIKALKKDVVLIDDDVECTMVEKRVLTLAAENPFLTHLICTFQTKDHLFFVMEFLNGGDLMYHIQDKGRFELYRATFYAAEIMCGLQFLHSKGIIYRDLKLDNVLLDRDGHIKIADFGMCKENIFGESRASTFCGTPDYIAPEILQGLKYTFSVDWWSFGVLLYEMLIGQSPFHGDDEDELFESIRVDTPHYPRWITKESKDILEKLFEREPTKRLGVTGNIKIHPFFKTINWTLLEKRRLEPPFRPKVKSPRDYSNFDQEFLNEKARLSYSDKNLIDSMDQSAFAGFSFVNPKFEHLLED
Sequence of Insulin receptor (Homo sapiens) (P06213 28-758 limits assumed): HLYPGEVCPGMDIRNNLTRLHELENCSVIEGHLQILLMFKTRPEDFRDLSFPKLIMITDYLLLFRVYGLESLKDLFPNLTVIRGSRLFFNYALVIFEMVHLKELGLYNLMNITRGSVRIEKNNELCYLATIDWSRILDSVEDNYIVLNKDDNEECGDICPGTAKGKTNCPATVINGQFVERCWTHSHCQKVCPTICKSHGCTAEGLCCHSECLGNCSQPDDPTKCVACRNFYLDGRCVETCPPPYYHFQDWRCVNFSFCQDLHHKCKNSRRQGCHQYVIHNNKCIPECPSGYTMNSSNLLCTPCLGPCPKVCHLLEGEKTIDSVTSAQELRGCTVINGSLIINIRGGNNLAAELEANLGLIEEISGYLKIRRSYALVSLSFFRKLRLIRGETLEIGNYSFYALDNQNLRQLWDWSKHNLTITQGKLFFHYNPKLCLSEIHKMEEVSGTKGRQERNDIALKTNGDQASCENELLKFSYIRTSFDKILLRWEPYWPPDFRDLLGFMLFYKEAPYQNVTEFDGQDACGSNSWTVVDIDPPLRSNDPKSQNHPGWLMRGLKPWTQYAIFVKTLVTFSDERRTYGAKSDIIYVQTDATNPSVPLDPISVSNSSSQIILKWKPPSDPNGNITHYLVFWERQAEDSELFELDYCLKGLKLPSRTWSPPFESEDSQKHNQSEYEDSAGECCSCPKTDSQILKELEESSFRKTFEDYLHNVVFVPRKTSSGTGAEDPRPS
Sequence of Insulin receptor (Homo sapiens) (P06213 763-1382 limits assumed): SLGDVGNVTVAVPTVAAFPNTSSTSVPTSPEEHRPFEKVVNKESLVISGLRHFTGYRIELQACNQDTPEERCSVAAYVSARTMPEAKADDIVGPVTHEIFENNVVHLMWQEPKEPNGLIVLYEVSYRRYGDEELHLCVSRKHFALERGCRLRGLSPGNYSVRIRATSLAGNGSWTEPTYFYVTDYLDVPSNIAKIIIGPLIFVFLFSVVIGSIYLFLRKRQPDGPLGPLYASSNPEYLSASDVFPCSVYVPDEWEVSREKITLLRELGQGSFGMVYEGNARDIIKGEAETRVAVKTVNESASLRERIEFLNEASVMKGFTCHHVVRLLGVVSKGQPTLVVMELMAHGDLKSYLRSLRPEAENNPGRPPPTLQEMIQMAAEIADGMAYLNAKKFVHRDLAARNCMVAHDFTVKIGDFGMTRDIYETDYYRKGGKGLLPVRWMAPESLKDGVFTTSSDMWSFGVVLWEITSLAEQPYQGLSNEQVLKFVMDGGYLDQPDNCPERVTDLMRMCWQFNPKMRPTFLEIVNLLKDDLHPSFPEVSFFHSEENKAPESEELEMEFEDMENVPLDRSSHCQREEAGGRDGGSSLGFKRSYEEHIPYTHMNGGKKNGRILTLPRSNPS
Sequence of Cyclin-dependent kinase 1/cyclin B1 (Homo sapiens) (P06493 whole entry, looked up): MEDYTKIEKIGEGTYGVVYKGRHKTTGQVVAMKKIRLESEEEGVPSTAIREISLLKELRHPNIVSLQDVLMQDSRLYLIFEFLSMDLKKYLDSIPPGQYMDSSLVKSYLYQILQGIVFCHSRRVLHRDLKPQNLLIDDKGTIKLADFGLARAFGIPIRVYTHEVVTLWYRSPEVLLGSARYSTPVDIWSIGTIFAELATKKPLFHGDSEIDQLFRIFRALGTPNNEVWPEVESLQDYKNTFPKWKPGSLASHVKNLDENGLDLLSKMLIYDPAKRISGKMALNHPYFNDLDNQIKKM
Sequence of Cyclin-dependent kinase 1/cyclin B1 (Homo sapiens) (P14635 whole entry, looked up): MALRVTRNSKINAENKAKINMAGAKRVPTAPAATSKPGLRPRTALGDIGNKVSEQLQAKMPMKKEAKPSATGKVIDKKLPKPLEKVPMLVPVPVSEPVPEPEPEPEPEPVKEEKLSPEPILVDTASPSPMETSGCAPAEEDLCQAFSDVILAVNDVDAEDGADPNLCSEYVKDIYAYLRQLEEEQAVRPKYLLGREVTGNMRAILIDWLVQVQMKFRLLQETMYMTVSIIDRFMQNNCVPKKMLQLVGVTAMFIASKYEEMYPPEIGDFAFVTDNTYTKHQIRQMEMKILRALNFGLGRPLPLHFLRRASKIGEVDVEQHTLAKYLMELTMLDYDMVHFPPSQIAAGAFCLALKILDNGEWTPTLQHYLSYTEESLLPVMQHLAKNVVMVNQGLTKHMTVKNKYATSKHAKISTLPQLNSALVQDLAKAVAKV

- inhibition [1]: 17%
- IC50 (Aurora kinase B): > 10 µM
- inhibition [2]: -2%
- inhibition [3]: 7%
- inhibition [4]: 10%
- IC50 [5]: > 10 µM
- inhibition [6]: -4%
- inhibition [7]: -5%
- inhibition [8]: 1%
- inhibition [9]: 23%
- IC50 [10]: 0.489 µM
- inhibition [11]: -1%
- IC50 [12]: > 10 µM
- inhibition (Homo sapiens [13]): -3%
- inhibition [14]: -3%
- inhibition [15]: 1%
- inhibition [16]: -7%
- inhibition (Homo sapiens [17]): -6%
- inhibition [18]: -10%
- inhibition [19]: -10%
- IC50 [20]: > 10 µM
- inhibition [21]: 1%
- inhibition [22]: 1%
- inhibition [23]: 4%
- IC50 [24]: > 10 µM
- inhibition [25]: -8%
- inhibition [26]: 4%
- inhibition [27]: 37%
- half-life [28]: 2.5 h
- bioavailability [29]: ~100%
- Cmax [30]: 1410 ng/mL
- AUC [31]: 1680 ng·h/mL
SMILES: O=C(Nc1nc2cccc(-c3ccc(CN4CCS(=O)(=O)CC4)cc3)n2n1)C1CC1 [FILGOTINIB]
- inhibition (RPMI-8226): Dose-Dependent Effect
- Activity (Mus musculus [32]): Active
- Activity (Mus musculus [33]): Active
- Activity (Mus musculus [34]): Active
- Activity (Mus musculus [35]): Active
- Activity (Mus musculus [36]): Active
- Activity (Mus musculus [37]): 7.8 ng/mL
- Activity (Mus musculus [38]): 422.6 ng/mL
- Activity (Mus musculus [39]): Active
- Activity (Mus musculus [40]): inactive
